Test results: the supplement of paper PMC10307832

Experiments:
Test in all cases: relative viability (nuclei count vs DMSO), 5 days (fraction); higher = more cells survive
[1] = compound: COc1cc2ncn(-c3cc(OCc4ccccc4C(F)(F)F)c(C(N)=O)s3)c2cc1OC + O=C(CCCCCCC(=O)Nc1ccccc1)NO [Vorinostat] (partner 1 µM)
How it was run: (§1)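 Relative viability is defined as nuclei in treated wells over nuclei in vehicle wells. Duplicate plates were run and medians reported. Lung cancer cell lines in 1536-well plates were dosed by pin tool one day after seeding, with one drug or with a fixed anchor-drug dose plus five library-drug doses (not always all listed) in √10 steps, and nuclei were counted after 5 days.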

[2] = compound: COc1cc2ncn(-c3cc(OCc4ccccc4C(F)(F)F)c(C(N)=O)s3)c2cc1OC + C[C@]1(O)C[C@@H](c2nc(-c3ccc4ccc(-c5ccccc5)nc4c3)c3c(N)nccn32)C1 [Linsitinib] (partner 1 µM)
How it was run: as §1

[3] = compound: COc1cc2ncn(-c3cc(OCc4ccccc4C(F)(F)F)c(C(N)=O)s3)c2cc1OC + Nc1nc2[nH]cc(CCc3ccc(C(=O)N[C@@H](CCC(=O)O)C(=O)O)cc3)c2c(=O)[nH]1 [Pemetrexed] (partner 0.2 µM)
How it was run: as §1

[4] = compound: COc1cc2ncn(-c3cc(OCc4ccccc4C(F)(F)F)c(C(N)=O)s3)c2cc1OC + O=C(c1cc(Cc2n[nH]c(=O)c3ccccc23)ccc1F)N1CCN(C(=O)C2CC2)CC1 [Olaparib] (partner 8 µM)
How it was run: as §1

Cell Line	relative viability ([1]; first compound 0.05 µM)	relative viability ([1]; first compound 0.1581 µM)	relative viability ([1]; first compound 0.5 µM)	relative viability ([1]; first compound 1.581 µM)	relative viability ([1]; first compound 5 µM)	relative viability ([2]; first compound 0.05 µM)	relative viability ([2]; first compound 0.1581 µM)	relative viability ([2]; first compound 0.5 µM)	relative viability ([2]; first compound 1.581 µM)	relative viability ([2]; first compound 5 µM)	relative viability ([3]; first compound 0.05 µM)	relative viability ([3]; first compound 0.1581 µM)	relative viability ([3]; first compound 0.5 µM)	relative viability ([3]; first compound 1.581 µM)	relative viability ([3]; first compound 5 µM)	relative viability ([4]; first compound 0.05 µM)	relative viability ([4]; first compound 0.1581 µM)	relative viability ([4]; first compound 0.5 µM)	relative viability ([4]; first compound 1.581 µM)	relative viability ([4]; first compound 5 µM)
201T	1.01	0.994	0.815	0.283	0.195	1.05	0.983	0.971	0.46	0.262	0.355	0.319	0.29	0.303	0.192	0.747	0.83	0.871	0.27	0.246
A-427	0.88	0.947	0.684	0.194	0.154	1.14	1.15	1.03	0.566	0.179	1.05	1.02	0.887	0.257	0.203	0.745	0.802	0.54	0.267	0.169
ABC-1	1.59	0.849	0.58	0.369	0.305	0.862	0.874	0.582	0.302	0.218						0.705	0.837	0.64	0.477	0.429
BEN	0.643	0.591	0.413	0.33	0.3	0.931	0.875	0.648	0.235	0.297	0.702	0.706	0.667	0.515	0.388	1.11	1.01	0.636	0.425	0.359
CAL-12T	0.674	0.558	0.268	0.141	0.159	0.775	0.746	0.423	0.246	0.228	0.706	1.19	0.621	0.212	0.165	0.563	0.676	0.415	0.189	0.188
COR-L23	0.381	0.416	0.162	0.0758	0.0932	0.887	0.761	0.332	0.0808	0.1	0.201	0.208	0.166	0.156	0.154	0.307	0.282	0.138	0.0966	0.109
COR-L 105	0.728	0.854	0.815	0.304	0.254	1.13	0.935	0.713	0.42	0.306	0.924	1.24	0.909	0.409	0.418	0.709	0.687	0.595	0.335	0.369
Calu-6						0.976	0.843	0.257	0.0961	0.0852						0.541	0.454	0.172	0.086	0.0935
ChaGo-K-1	0.775	0.721	0.629	0.232	0.162						0.263	0.251	0.232	0.175	0.153	0.398	0.389	0.312	0.208	0.12
EBC-1						0.798	0.889	0.446	0.169	0.134						0.622	0.758	0.217	0.154	0.128
EKVX	0.745	0.836	0.477	0.363	0.167	1.06	1.07	0.858	0.214	0.42	0.395	0.302	0.334	0.244	0.242	0.888	0.934	0.631	0.206	0.222
EMC-BAC-2	0.899	0.535	0.305	0.223	0.158	0.906	0.843	0.696	0.509	0.164	0.459	0.446	0.441	0.338	0.311	0.467	0.48	0.359	0.259	0.216
EPLC-272H	0.175	0.181	0.0719	0.077	0.12	1.12	1.15	0.533	0.11	0.11	0.25	0.206	0.104	0.121	0.206	0.177	0.221	0.0762	0.0805	0.146
H3255	0.806	0.492	0.627	0.606	0.481	0.858	0.962	0.533	0.248	0.228	0.556	0.602	0.552	0.332	0.341	0.532	0.534	0.541	0.415	0.332
HARA	0.358	0.421	0.237	0.0932	0.0592	0.958	0.842	0.834	0.208	0.0806	0.242		0.24	0.176	0.126	0.317		0.261	0.131	0.105
HCC-15	0.618	0.769	0.349	0.139	0.127	0.865	0.828	0.557	0.14	0.13	0.23	0.215	0.174	0.156	0.13	0.566	0.446	0.232	0.131	0.14

Cell Line	relative viability ([1]; first compound 0.05 µM)	relative viability ([1]; first compound 0.1581 µM)	relative viability ([1]; first compound 0.5 µM)	relative viability ([1]; first compound 1.581 µM)	relative viability ([1]; first compound 5 µM)	relative viability ([2]; first compound 0.05 µM)	relative viability ([2]; first compound 0.1581 µM)	relative viability ([2]; first compound 0.5 µM)	relative viability ([2]; first compound 1.581 µM)	relative viability ([2]; first compound 5 µM)	relative viability ([3]; first compound 0.05 µM)	relative viability ([3]; first compound 0.1581 µM)	relative viability ([3]; first compound 0.5 µM)	relative viability ([3]; first compound 1.581 µM)	relative viability ([3]; first compound 5 µM)	relative viability ([4]; first compound 0.05 µM)	relative viability ([4]; first compound 0.1581 µM)	relative viability ([4]; first compound 0.5 µM)	relative viability ([4]; first compound 1.581 µM)	relative viability ([4]; first compound 5 µM)
HCC-44	1.14	1.03	0.852	0.331	0.247	0.773	0.621	0.55	0.141	0.109	0.633	0.625	0.685	0.338	0.342	1.06	1.04	0.877	0.39	0.372
HCC-78	0.483	0.396	0.281	0.261	0.223	0.537	0.597	0.368	0.315	0.394	0.967	0.903	0.895	0.939	0.87	0.939	0.927	0.645	0.601	0.468
HCC-366	0.347	0.3	0.0923	0.0208	0.0152	0.837	0.635	0.114	0.0118	0.0055	0.166	0.155	0.0748	0.0321	0.0197	0.204	0.273	0.0764	0.0193	0.0147
HCC-827	0.995	0.887	0.763	0.376	0.445	0.968	0.924	0.798	0.401	0.27	0.269	0.304	0.227	0.259	0.263	0.575	0.547	0.452	0.306	0.179
HOP-62	0.687	0.706	0.202	0.129	0.0896	0.95	0.966	0.547	0.116	0.0914	0.261	0.302	0.265	0.123	0.0991	0.387	0.38	0.302		0.116
IA-LM	0.916	0.803	0.241	0.0678	0.0714	0.58	0.606	0.172	0.0675	0.0619						0.75	0.602	0.123	0.0768	0.0783
NCI-H727	1.28	1.14	0.673	0.579	0.591	0.321	0.283	0.166	0.186	0.305						0.676	0.672	0.68	0.489	0.535
NCI-H1299						0.984	1.12	0.636	0.245	0.253						0.962	0.921	0.431	0.223	0.19
NCI-H1563						1.22	1.18	1.22	1.21	0.799	0.833	0.654	0.707	0.71	0.365					
NCI-H1648	0.37	0.523	0.203	0.267	0.186						0.855	0.805	0.513	0.243	0.219	0.74	0.596	0.366	0.242	0.261
NCI-H1650	0.484	0.555	0.36	0.154	0.133						0.421	0.36	0.333	0.217	0.207	0.757	0.659	0.305	0.114	0.204
NCI-H1703						0.721	0.992	0.205	0.143	0.078						0.416	0.616	0.488	0.261	0.066
NCI-H1792						0.517	0.531	0.301	0.216	0.148	0.683	0.688	0.0781	0.0502	0.0387	0.152	0.273	0.457	0.0375	0.0338
NCI-H2170	0.834	0.725	0.386	0.128	0.125						0.251	0.268	0.26	0.184	0.162	0.566	0.444	0.166	0.168	0.148
NCI-H2342	0.917	0.744	0.595	0.693	0.527						0.773	0.782	0.56	0.518	0.655	0.389	0.437	0.407	0.388	0.421
